Measured values: the NIST ThermoML archive (doi:10.1016/j.fluid.2007.01.022)
Numbers after ± are expanded uncertainties.

conditions: 298.15 K; 101.33 kPa; Liquid

Q: For `CCCCCCCCCCCC` [dodecane], which mass density is on record?
A: The mass density was 741.54 ± 1.6 kg/m3.

Q: For `CCCCCCCCC` [nonane], which mass density is on record?
A: Its mass density is 714.064 ± 1.3 kg/m3.

Q: With `CCCCCCCC` [octane] as the compound, how does the mass density read?
A: Its mass density is 698.636 ± 1.3 kg/m3.

Q: With `CCCCCCCCCC` [decane] as the compound, how does the mass density read?
A: Its mass density is 726.412 ± 1.6 kg/m3.

Q: With `Cc1ccccc1N` [2-methylaniline] as the compound, how does the mass density read?
A: Its mass density is 994.343 ± 0.24 kg/m3.

Q: Which mass density does the source give for `CCCCCCC` [heptane] here?
A: Its mass density is 679.627 ± 0.85 kg/m3.
